From patent US8748369B2, “Use of targeted nitroxide agents in bone healing” (University of Pittsburgh-Of the Commonwealth System of …, priority 2009, dated 2014)

How the values were obtained:
[1] = system: mitochondria of 32D c13 hemopoietic cells; assay: Mass spectrometry of compounds in mitochondria isolated from 32D cl3 cells; format: cell-based, mouse; conditions: 100 μM; for permeation of the mitochondrial membrane (unconjugated compound): two hours at 37° C.; for Fmole/l 0 M mitochondrial protein (relative quantification of conjugate concentration at the target site): mouse, 2 h
Procedure: An unconjugated and conjugated NOS antagonist, (AMT, 100 μM) and an unconjugated and conjugated nitroxide derivative (4-amino-TEMPO, 100 μM) were incubated for two hours at 37° C. with 32D c13 hemopoietic cells.
Following incubation, the cells were lysed and the mitochondria isolated for a mass spectrometry analysis where compounds isolated from mitochondria were identified as Na+ adducts. […] Thus, the targeting peptides successfully direct a NOS antagonist and a nitroxide to the mitochondria.
Quantitative mass spectrometry studies were used to compare the effectiveness of several AMT peptide conjugates in permeating the mitochondrial membrane, specifically XJB-5-234, XJB-5-133, XJB-5-241, and XJB-5-127. The Fmole/10 μM mitochondrial protein ratio provides a relative quantification of conjugate concentration at the target site.

[2] = system: mouse embryonic cells (MEC); assay: ActD-induced apoptosis in MECs (PS externalization, caspase-3, DNA fragmentation); format: cell-based; conditions: low concentrations (10 μM)
Source text: Cells that annexin V-positive and PI-negative were considered apoptotic.

[3] = system: mouse embryonic cells (MEC), mitochondria; assay: EPR-based analysis of integration and reduction of nitroxide conjugates in MECs; format: cell-based; conditions: MECs incubated with 10 μM compound
Procedure: Electron paramagnetic resonance (“EPR”) spectroscopy was used to monitor the cellular delivery of compounds 5a and 5b shown in FIG. 3 in mouse embryonic cells (“MEC”).
The following conditions were used during the EPR-based analysis of the integration and reduction of nitroxide Gramicidin S-peptidyl conjugates in MECs. The MECs at a concentration of 10 million MECs per mL were incubated with 10 μM of 4-AT and compound 5a, respectively. Recovered nitroxide radicals in whole cells, mitochondria, and cytosol fractions were resuspended in phosphate buffer saline (“PBS”) in the presence and absence, respectively, of 2 μM K3Fe(CN)6.

[4] = system: 32D cl 3 murine hematopoietic cells; assay: Irradiation survival curves of 32D cl 3 cells; format: cell-based, mouse; conditions: cells incubated in compound
Procedure: FIG. 16 illustrates the effect of GS conjugated nitroxide, XJB-5-125, on gamma-irradiation dose survival curves of 32D cl 3 murine hematopoietic cells.
Irradiation survival curves were performed on cells from the 32D cl 3 mouse hematopoietic progenitor cell line, incubated in 10 μM JP4-039 for 1 hour before irradiation, or plated in methycellulose containing 10 μM JP4-030 after irradiation. Cells were irradiated from 0 to 8 Gy, plated in 0.8% methycellulose containing media, and incubated for 7 days at 37° C. Colonies of greater than 50 cells were counted and data analyzed by linear quadratic and single-hit, multi-target models.

[5] = system: rat ileal mucosal permeability following hemorrhagic shock; assay: Intestinal mucosal permeability assay (FD4) after hemorrhagic shock; format: in vivo; conditions: intraluminal
Procedure: Intestinal Mucosal Permeability Assay. Animals were allowed access to water but not food for 24 h prior to the experiment in order to decrease the volume of intestinal contents. The rats were instrumented as described above. A midline laparotomy was performed and the small intestine was exteriorized from the duodenojejunal junction to the ileocecal valve. A small incision was made on the antimesenteric aspect of the proximal small intestine and saline solution (1.5 ml) was injected. The bowel was ligated proximally and distally to the incision with 4-0 silk (Look, Reading, Pa.).
The small intestine was compressed gently in aboral direction along its length to displace intestinal contents into the colon. Starting 5 cm from the ileocecal valve, the ileum was partitioned into six contiguous water-tight segments. […]
The remaining four other segments were injected with solutions containing either 4-hydroxy-2,2,6,6-tetramethylpiperidine-N-oxyl (TEMPOL) or one of the Gramicidin S-based compounds. Four different final concentrations of TEMPOL in normal saline were evaluated: 0.1, 1, 5 and 20 mM. […]
Fluorescence of FD4 in the solution inside the beaker and within each gut sac was measured using a fluorescence spectrophotometer (LS-50, Perkin-Elmer, Palo Alto, Calif.) at an excitation wavelength of 492 nm and an emission wavelength of 515 nm. […]

[6] = system: rats subjected to volume-controlled hemorrhagic shock; assay: Survival of rats subjected to volume-controlled hemorrhagic shock; format: in vivo, rat; conditions: 2 μmol/kg intravenous, no resuscitation
Procedure: Survival of Rats Subjected to Volume-controlled Hemorrhagic Shock. Following surgical preparation and a 5-min stabilization period to obtain baseline readings, rats were subjected to hemorrhagic shock. Bleeding was carried out in 2 phases.
Initially, 21 ml/kg of blood was withdrawn over 20 min. Immediately thereafter, an additional 12.5 ml/kg of blood was withdrawn over 40 min. Thus, hemorrhage occurred over a total period of 60 min and the total blood loss was 33.5 ml/kg or approximately 55% of the total blood volume. Rats were randomly assigned to receive XJB-5-131 (2 μmmol/kg) or its vehicle, a 33:67 (v/v) mixture of DMSO and normal saline. XJB-5-131 solution or vehicle alone was administered as a continuous infusion during the last 20 min of the hemorrhage period. The total volume of fluid infused was 2.8 ml/kg and it was administered intravenously using a syringe pump (KD100, KD Scientific, New Hope, Pa.). […] At the end of the 6 hour observation period, animals that were still alive were euthanized with an overdose of KCl.
Blood pressure was recorded continuously using a commercial strain-gauge transducer, amplifier, and monitor (590603a, SpaceLabs, Redmond, Wash.). […] Hemoglobin concentration [Hb], lactate and glucose concentration were determined using an auto-analyzer (Model ABL 725, Radiometer Copenhagen, Westlake, Ohio). […]

CC1CCN=C(N)S1 (stereo not drawn) [AMT, 2-amino-6-methyl-thiazine, reference compound]
permeation of the mitochondrial membrane (unconjugated compound) [1]: do not enter the mitochondria membrane in substantial quantities

CC1(C)CC(N)CC(C)(C)N1[O] [Compound 4-AT, 4-amino-TEMPO, reference compound]
permeation of the mitochondrial membrane (unconjugated compound) [1]: only permeate the mitochondrial membrane with the assistance of the attached GS-derived targeting sequence | protection of MECs against ActD-induced apoptosis [2]: afforded no protection | integration into cells and mitochondria (EPR signal of nitroxide radicals) [3]: did not effectively permeate cells or the mitochondria

CC1(C)CC(O)CC(C)(C)N1[O] [TEMPOL, 4-hydroxy-2,2,6,6-tetramethylpiperidine-N-oxyl, reference compound]
Do of gamma-irradiation survival curve [4]: 1.209 Gy

CC(C)C[C@@H](/C=C/[C@H](Cc1ccccc1)C(=O)N1CCC[C@H]1C(=O)N[C@H](C(=O)N[C@@H](CCCNC(=O)OCc1ccccc1)C(=O)NC1CC(C)(C)N([O])C(C)(C)C1)C(C)C)NC(=O)OC(C)(C)C [XJB-5-131]
hemorrhagic shock-induced mucosal hyperpermeability relative to control value [5]: approximately 60% | survival versus vehicle [6]: survived significantly longer | integration into cells and mitochondria (EPR signal of nitroxide radicals) [3]: concentrated in the mitochondria | integration into cells and mitochondria (EPR signal of nitroxide radicals) ([3]; listed as 5a): integration and one-electron reduction

CC(C)C[C@@H](/C=C/[C@H](Cc1ccccc1)C(=O)N1CCC[C@H]1C(=O)N[C@H](C(=O)N[C@@H](CCCNC(=O)OCc1ccccc1)C(=O)NC1=NCCC(C)S1)C(C)C)NC(=O)OC(C)(C)C (stereo partly drawn) [XJB-5-133, Boc-Leu-ψ[(E)-CH═CH]-^DPhe-Pro-Val-Orn(Cbz)-AMT]
Fmole/l 0 M mitochondrial protein (relative quantification of conjugate concentration at the target site) [1]: 89.8 Fmole/l 0 M mitochondrial protein

CC(C)C[C@@H](/C=C/[C@H](Cc1ccccc1)C(=O)NC1=NCCC(C)S1)NC(=O)OC(C)(C)C (stereo partly drawn) [XJB-5-234, Boc-Leu-ψ[(E)-CH═CH]-^DPhe-AMT]
Fmole/l 0 M mitochondrial protein (relative quantification of conjugate concentration at the target site) [1]: 1.45 Fmole/l 0 M mitochondrial protein

C/C(=C\[C@H](Cc1ccccc1)C(=O)N1CCC[C@H]1C(=O)N[C@H](C(=O)N[C@@H](CCCNC(=O)OCc1ccccc1)C(=O)NC1=NCCC(C)S1)C(C)C)[C@H](CC(C)C)NC(=O)OC(C)(C)C (stereo partly drawn) [XJB-5-241, Boc-Leu-104 [(E)-C(CH3)═CH]-^DPhe-Pro-Val-Orn(Cbz)-AMT]
Fmole/l 0 M mitochondrial protein (relative quantification of conjugate concentration at the target site) [1]: 103.3 Fmole/l 0 M mitochondrial protein
